Read-outs that look alike come from different tables or passages of the source.
Key:
Assay in all cases: Kinase panel
Type in all cases: biochemical
ALK4/ACVR1B = ALK4/ACVR1B (Homo sapiens, UniProt P36896); conditions: read-out: residual enzyme activity
Outline: (§1)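 Each listed kinase was assayed biochemically in the presence of 1 µM compound, and the calculated value is residual enzyme activity. Identification criterion was inhibition reaching 60% or more.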

ROS/ROS1 = ROS/ROS1 (Homo sapiens, UniProt P08922); conditions: ROS/ROS1, 1 µM; read-out: residual enzyme activity
Outline: as §1

MEK5 = MEK5 (Homo sapiens, UniProt Q13163); conditions: MEK5, 1 µM; read-out: residual enzyme activity
Outline: as §1

MAST3 = MAST3 (Homo sapiens, UniProt O60307); conditions: MAST3, 1 µM; read-out: residual enzyme activity
Outline: as §1

FLT1/VEGFR1 = FLT1/VEGFR1 (Homo sapiens, UniProt P17948); conditions: FLT1/VEGFR1, 1 µM; read-out: residual enzyme activity
Outline: as §1

PYK2 = PYK2 (Homo sapiens, UniProt Q14289); conditions: PYK2, 1 µM; read-out: residual enzyme activity
Outline: as §1

DAPK2 = DAPK2 (Homo sapiens, UniProt Q9UIK4); conditions: DAPK2, 1 µM; read-out: residual enzyme activity
Outline: as §1

LIMK1 = LIMK1 (Homo sapiens, UniProt P53667); conditions: LIMK1, 1 µM; read-out: residual enzyme activity
Outline: as §1

PKN3/PRK3 = PKN3/PRK3 (Homo sapiens, UniProt Q6P5Z2); conditions: PKN3/PRK3, 1 µM; read-out: residual enzyme activity
Chain of PKN3/PRK3 (Q6P5Z2 whole entry): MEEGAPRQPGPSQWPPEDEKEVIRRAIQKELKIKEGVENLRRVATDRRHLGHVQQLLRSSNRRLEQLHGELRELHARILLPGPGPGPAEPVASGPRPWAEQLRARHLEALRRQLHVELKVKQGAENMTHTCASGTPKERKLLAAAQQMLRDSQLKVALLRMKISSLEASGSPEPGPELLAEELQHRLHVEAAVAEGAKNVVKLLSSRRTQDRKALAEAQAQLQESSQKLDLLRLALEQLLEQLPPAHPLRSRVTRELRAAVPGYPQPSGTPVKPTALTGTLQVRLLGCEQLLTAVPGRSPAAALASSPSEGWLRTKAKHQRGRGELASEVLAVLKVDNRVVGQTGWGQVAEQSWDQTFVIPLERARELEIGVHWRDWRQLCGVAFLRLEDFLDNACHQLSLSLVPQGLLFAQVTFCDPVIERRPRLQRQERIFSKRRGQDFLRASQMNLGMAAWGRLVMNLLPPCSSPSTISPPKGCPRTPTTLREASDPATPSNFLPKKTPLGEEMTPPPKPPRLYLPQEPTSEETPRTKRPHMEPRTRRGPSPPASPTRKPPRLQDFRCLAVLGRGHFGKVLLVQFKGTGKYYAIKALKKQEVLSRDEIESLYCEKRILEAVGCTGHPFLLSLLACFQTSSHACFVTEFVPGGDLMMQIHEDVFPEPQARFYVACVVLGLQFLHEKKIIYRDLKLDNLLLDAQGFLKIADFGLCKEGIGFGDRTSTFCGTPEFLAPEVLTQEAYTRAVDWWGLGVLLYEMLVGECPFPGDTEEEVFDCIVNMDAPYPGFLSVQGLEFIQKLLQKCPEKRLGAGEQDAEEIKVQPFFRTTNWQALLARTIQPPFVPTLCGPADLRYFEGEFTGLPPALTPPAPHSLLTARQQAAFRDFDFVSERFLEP
Outline: as §1

MKK4 = MKK4 (Homo sapiens, UniProt P45985); conditions: MKK4, 1 µM; read-out: residual enzyme activity
Outline: as §1

BRK = BRK (Homo sapiens, UniProt Q13882); conditions: read-out: residual enzyme activity
Outline: as §1

CK1D = CK1D (Homo sapiens, UniProt P48730); conditions: read-out: residual enzyme activity
Chain of CK1D (P48730 whole entry): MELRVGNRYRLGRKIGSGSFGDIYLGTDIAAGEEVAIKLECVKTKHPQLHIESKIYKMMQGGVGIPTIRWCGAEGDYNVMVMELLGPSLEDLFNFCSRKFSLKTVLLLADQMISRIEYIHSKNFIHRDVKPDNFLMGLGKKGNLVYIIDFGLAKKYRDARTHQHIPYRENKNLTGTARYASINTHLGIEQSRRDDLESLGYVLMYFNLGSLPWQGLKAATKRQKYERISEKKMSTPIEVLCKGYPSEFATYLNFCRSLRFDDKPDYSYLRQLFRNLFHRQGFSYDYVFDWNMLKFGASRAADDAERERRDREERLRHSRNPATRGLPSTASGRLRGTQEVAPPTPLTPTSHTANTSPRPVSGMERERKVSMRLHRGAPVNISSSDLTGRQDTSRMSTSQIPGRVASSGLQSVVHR
Outline: as §1

GSK3B = GSK3B (Homo sapiens, UniProt P49841); conditions: read-out: residual enzyme activity
Outline: as §1

PKA = PKA (Homo sapiens, UniProt P17612); conditions: read-out: residual enzyme activity
Outline: as §1

EPHAS = EPHAS (Homo sapiens, UniProt P29322); conditions: read-out: residual enzyme activity
Outline: as §1

HIPK4 = HIPK4 (Homo sapiens, UniProt Q8NE63); conditions: HIPK4, 1 µM; read-out: residual enzyme activity
Outline: as §1

CDK1/CYCLIN B = CDK1/CYCLIN B (Homo sapiens, UniProt P06493); conditions: read-out: residual enzyme activity
Chain of CDK1/CYCLIN B (P06493 whole entry, species assumed): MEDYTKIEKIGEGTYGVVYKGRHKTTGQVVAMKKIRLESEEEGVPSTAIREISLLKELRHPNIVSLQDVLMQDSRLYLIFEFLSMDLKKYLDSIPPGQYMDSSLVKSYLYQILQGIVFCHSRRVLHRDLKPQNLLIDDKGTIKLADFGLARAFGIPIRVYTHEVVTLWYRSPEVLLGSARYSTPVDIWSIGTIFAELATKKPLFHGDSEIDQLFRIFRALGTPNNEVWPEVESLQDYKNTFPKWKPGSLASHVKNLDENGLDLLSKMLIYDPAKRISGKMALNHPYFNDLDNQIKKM
Chain of CDK1/CYCLIN B (P14635 whole entry partner, species assumed): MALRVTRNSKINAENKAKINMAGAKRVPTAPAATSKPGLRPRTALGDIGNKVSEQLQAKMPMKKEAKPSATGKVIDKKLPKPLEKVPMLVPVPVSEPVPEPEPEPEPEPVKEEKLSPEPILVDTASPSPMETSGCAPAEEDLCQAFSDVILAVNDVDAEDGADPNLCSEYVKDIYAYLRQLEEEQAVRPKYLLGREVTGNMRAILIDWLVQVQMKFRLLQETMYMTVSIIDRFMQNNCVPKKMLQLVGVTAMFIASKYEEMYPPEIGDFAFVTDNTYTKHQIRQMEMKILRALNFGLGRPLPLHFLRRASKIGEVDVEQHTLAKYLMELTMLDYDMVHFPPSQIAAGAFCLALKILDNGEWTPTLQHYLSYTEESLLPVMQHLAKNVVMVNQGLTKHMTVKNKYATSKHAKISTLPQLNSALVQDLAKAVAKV
Outline: as §1

PKCEPSILON = PKCEPSILON (Homo sapiens, UniProt Q02156); conditions: read-out: residual enzyme activity
Chain of PKCEPSILON (Q02156 whole entry): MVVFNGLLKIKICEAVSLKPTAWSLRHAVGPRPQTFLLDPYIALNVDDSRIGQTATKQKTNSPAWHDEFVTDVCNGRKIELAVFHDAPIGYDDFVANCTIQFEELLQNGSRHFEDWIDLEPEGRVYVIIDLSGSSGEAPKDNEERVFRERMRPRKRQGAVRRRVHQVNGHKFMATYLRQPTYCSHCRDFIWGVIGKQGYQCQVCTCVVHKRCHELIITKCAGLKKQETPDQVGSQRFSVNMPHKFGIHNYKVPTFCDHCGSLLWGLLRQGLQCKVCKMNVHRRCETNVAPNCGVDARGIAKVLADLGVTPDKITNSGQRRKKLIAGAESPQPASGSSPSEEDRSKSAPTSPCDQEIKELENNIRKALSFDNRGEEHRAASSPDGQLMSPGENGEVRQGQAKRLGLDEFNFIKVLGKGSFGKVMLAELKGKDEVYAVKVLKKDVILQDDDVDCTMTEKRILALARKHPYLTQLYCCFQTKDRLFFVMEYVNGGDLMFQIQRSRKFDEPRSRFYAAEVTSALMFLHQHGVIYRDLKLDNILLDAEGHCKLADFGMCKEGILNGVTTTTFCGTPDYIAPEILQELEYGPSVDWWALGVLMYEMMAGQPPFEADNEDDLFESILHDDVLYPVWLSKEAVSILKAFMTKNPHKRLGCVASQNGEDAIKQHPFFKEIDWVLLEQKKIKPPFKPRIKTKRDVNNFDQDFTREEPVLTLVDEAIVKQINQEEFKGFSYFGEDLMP
Outline: as §1

FES/FPS = FES/FPS (Homo sapiens, UniProt P07332); conditions: read-out: residual enzyme activity
Outline: as §1

MINK/MINK1 = MINK/MINK1 (Homo sapiens, UniProt Q8N4C8); conditions: MINK/MINK1, 1 µM; read-out: residual enzyme activity
Chain of MINK/MINK1 (Q8N4C8 whole entry): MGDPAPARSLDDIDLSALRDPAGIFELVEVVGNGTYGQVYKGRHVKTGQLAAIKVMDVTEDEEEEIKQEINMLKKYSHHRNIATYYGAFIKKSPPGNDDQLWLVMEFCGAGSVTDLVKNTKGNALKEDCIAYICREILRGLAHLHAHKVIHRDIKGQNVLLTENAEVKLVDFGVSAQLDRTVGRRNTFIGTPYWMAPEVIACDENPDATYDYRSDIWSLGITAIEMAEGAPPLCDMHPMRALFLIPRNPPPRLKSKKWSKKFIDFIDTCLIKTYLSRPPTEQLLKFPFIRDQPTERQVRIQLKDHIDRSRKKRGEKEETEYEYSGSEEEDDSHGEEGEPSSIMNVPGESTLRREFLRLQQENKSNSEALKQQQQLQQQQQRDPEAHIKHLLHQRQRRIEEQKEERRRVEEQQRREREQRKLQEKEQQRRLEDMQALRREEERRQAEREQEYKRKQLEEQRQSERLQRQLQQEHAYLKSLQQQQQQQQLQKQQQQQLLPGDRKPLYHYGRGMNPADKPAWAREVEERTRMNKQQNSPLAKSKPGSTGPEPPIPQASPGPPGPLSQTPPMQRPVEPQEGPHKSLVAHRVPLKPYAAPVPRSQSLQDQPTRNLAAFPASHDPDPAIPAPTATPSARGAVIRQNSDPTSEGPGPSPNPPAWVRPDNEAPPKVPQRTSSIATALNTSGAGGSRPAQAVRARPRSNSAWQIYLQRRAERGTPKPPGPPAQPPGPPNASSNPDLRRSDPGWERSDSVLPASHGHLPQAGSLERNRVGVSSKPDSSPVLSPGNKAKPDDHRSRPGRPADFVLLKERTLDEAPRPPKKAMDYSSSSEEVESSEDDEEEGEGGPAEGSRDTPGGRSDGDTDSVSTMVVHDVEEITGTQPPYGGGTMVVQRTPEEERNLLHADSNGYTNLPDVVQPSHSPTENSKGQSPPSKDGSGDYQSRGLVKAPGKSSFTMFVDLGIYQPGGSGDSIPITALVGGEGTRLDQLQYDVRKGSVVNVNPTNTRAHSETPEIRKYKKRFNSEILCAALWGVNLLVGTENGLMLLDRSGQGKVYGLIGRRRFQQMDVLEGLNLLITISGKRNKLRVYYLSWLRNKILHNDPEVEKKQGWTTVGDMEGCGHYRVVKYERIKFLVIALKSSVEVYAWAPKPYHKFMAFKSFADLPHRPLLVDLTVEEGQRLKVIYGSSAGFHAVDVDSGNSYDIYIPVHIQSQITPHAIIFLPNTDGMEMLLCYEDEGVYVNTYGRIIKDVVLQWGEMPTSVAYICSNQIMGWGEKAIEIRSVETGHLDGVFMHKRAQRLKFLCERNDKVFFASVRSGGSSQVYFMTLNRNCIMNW
Outline: as §1

PKACG = PKACG (Homo sapiens, UniProt P22612); conditions: read-out: residual enzyme activity
Chain of PKACG (P22612 whole entry): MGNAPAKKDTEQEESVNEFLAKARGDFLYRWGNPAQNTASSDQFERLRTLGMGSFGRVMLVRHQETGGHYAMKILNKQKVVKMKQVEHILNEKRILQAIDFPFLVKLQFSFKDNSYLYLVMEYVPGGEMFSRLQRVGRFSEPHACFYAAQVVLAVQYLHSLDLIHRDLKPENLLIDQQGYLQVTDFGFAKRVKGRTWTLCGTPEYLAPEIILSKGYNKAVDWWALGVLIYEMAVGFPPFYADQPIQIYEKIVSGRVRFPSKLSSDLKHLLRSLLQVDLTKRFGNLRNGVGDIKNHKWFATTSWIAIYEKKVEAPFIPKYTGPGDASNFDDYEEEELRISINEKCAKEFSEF
Outline: as §1

RAF1 = RAF1 (Homo sapiens, UniProt P04049); conditions: RAF1, 1 µM; read-out: residual enzyme activity
Outline: as §1

SYK = SYK (Homo sapiens, UniProt P43405); conditions: read-out: residual enzyme activity
Outline: as §1

JAK3 = JAK3 (Homo sapiens, UniProt P52333); conditions: JAK3, 1 µM; read-out: residual enzyme activity
Outline: as §1

CDK2/CYCLIN O = CDK2/CYCLIN O (Homo sapiens, UniProt P24941); conditions: read-out: residual enzyme activity
Outline: as §1

SRMS = SRMS (Homo sapiens, UniProt Q9H3Y6); conditions: read-out: residual enzyme activity
Outline: as §1

CDK2/CYCLIN A1 = CDK2/CYCLIN A1 (Homo sapiens, UniProt P24941); conditions: CDK2/Cyclin A1, 1 µM; read-out: residual enzyme activity
Outline: as §1

NEK11 = NEK11 (Homo sapiens, UniProt Q8NG66); conditions: NEK11, 1 µM; read-out: residual enzyme activity
Outline: as §1

MEKK1 = MEKK1 (Homo sapiens, UniProt Q13233); conditions: MEKK1, 1 µM; read-out: residual enzyme activity
Outline: as §1

CK1G2 = CK1G2 (Homo sapiens, UniProt P78368); conditions: read-out: residual enzyme activity
Chain of CK1G2 (P78368 whole entry, species assumed): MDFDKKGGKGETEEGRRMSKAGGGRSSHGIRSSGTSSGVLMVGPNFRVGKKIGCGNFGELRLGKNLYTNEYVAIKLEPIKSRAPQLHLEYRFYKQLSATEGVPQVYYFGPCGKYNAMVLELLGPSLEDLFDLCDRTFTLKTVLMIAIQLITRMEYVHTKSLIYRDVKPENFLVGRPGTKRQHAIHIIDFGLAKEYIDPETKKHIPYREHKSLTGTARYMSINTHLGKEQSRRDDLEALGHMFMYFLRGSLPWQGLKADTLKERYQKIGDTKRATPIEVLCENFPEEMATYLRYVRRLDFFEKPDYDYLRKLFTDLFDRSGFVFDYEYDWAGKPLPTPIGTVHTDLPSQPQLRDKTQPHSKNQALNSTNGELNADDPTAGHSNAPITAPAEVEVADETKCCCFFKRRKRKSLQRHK
Outline: as §1

PKCA = PKCA (Homo sapiens, UniProt P17252); conditions: read-out: residual enzyme activity
Outline: as §1

PASK = PASK (Homo sapiens, UniProt Q96RG2); conditions: read-out: residual enzyme activity
Outline: as §1

JNK3 = JNK3 (Homo sapiens, UniProt P53779); conditions: JNK3, 1 µM; read-out: residual enzyme activity
Outline: as §1

CHK1 = CHK1 (Homo sapiens, UniProt O14757); conditions: CHK1, 1 µM; read-out: residual enzyme activity
Outline: as §1

Compound | remaining activity at 1 µM (ALK4/ACVR1B) [%] | remaining activity at 1 µM (ROS/ROS1) [%] | remaining activity at 1 µM (MEK5) [%] | remaining activity at 1 µM (MAST3) [%] | remaining activity at 1 µM (FLT1/VEGFR1) [%] | remaining activity at 1 µM (PYK2) [%] | remaining activity at 1 µM (DAPK2) [%] | remaining activity at 1 µM (LIMK1) [%] | remaining activity at 1 µM (PKN3/PRK3) [%] | remaining activity at 1 µM (MKK4) [%] | remaining activity at 1 µM (BRK) [%] | remaining activity at 1 µM (PKA) [%] | remaining activity at 1 µM (HIPK4) [%] | remaining activity at 1 µM (CDK1/CYCLIN B) [%] | remaining activity at 1 µM (PKCEPSILON) [%] | remaining activity at 1 µM (FES/FPS) [%] | remaining activity at 1 µM (MINK/MINK1) [%] | remaining activity at 1 µM (PKACG) [%] | remaining activity at 1 µM (RAF1) [%] | remaining activity at 1 µM (SYK) [%] | also measured
Cc1cn(-c2cc(C(=O)Nc3ccc(C)c(N4Cc5cnc(NC6CC6)nc5C5(CC5)C4=O)c3)cc(C(F)(F)F)c2)cn1 [Compound 8, N-(3-(2'-(cyclopropylamino)-7'-oxo-5'H-spiro[cyclopropane-1,8'-pyrido[4,3-d]pyrimidine]-6'(7'H)-yl)-4-methylphenyl)-3-(4-methyl-1H-imidazol-1-yl)-5-(trifluoromethyl)benzamide] | > 40 | ≤ 40 | ≤ 40 | > 40 | ≤ 40 | ≤ 40 | > 40 | ≤ 40 | > 40 | > 40 | ≤ 40 | > 40 | > 40 | > 40 | > 40 | ≤ 40 | ≤ 40 | ≤ 40 | ≤ 40 | > 40 | remaining activity at 1 µM (CK1D; CK1D): > 40%; remaining activity at 1 µM (GSK3B; GSK3B): > 40%; remaining activity at 1 µM (EPHAS; EPHAS (row 110), 1 µM): ≤ 40%; remaining activity at 1 µM (JAK3): ≤ 40%; remaining activity at 1 µM (CDK2/CYCLIN O): > 40%; remaining activity at 1 µM (SRMS): ≤ 40%; remaining activity at 1 µM (CDK2/CYCLIN A1): > 40%; remaining activity at 1 µM (NEK11): > 40%; remaining activity at 1 µM (MEKK1): > 40%; remaining activity at 1 µM (CK1G2; CK1G2, 1 µM): > 40%; remaining activity at 1 µM (PKCA): > 40%; remaining activity at 1 µM (PASK): > 40%; remaining activity at 1 µM (JNK3): > 40%; remaining activity at 1 µM (CHK1): > 40%
Cc1ccc(Nc2ncc3c(n2)C2(CC2)C(=O)N(c2cc(NC(=O)c4cccc(C(F)(F)F)c4)ccc2C)C3)cn1 [Compound 51, N-(4-methyl-3-(2'-((6-methylpyridin-3-yl)amino)-7'-oxo-5'H-spiro[cyclopropane-1,8'-pyrido[4,3-d]pyrimidine]-6'(7'H)-yl)phenyl)-3-(trifluoromethyl)benzamide] | > 40 | ≤ 40 | ≤ 40 | > 40 | ≤ 40 | ≤ 40 | > 40 | ≤ 40 | > 40 | > 40 | ≤ 40 | > 40 | ≤ 40 | > 40 | > 40 | ≤ 40 | ≤ 40 | ≤ 40 | ≤ 40 | ≤ 40 | remaining activity at 1 µM (CK1D; CKld): > 40%; remaining activity at 1 µM (GSK3B; GSK3b): > 40%; remaining activity at 1 µM (EPHAS; EPHA8, 1 µM): ≤ 40%; remaining activity at 1 µM (JAK3): ≤ 40%; remaining activity at 1 µM (CDK2/CYCLIN O): > 40%; remaining activity at 1 µM (SRMS): ≤ 40%; remaining activity at 1 µM (CDK2/CYCLIN A1): > 40%; remaining activity at 1 µM (NEK11): ≤ 40%; remaining activity at 1 µM (MEKK1): > 40%; remaining activity at 1 µM (CK1G2; CKlg2, 1 µM): > 40%; remaining activity at 1 µM (PKCA): > 40%; remaining activity at 1 µM (PASK): > 40%; remaining activity at 1 µM (JNK3): ≤ 40%; remaining activity at 1 µM (CHK1): > 40%
